Reference: ChEMBL document CHEMBL1155307, “4-Anilino-7-pyridyl-3-quinolinecarbonitriles as Src kinase inhibitors” (Bioorg Med Chem Lett, 2009)

Molecular target: Proto-oncogene tyrosine-protein kinase Src (Homo sapiens, UniProt P12931)
Experiment: Inhibition of Src

Sequence of Proto-oncogene tyrosine-protein kinase Src (P12931 2-536 limits assumed): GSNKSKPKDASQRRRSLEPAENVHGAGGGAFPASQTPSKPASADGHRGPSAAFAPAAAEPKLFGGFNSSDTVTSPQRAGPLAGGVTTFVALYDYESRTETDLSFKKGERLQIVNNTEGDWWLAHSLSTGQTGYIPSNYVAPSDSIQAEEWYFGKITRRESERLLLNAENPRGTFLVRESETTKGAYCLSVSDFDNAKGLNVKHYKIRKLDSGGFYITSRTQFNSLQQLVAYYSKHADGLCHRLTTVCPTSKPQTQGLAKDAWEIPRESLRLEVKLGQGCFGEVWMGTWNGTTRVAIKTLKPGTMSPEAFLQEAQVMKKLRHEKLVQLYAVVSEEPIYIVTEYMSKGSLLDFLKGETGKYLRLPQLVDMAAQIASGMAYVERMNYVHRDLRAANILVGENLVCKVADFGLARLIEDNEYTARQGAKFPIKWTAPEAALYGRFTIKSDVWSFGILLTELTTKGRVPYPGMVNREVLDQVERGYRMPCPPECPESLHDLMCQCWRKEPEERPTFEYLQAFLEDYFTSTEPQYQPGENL

Molecule `COc1cc(Nc2c(C#N)cnc3cc(-c4ncccc4CN4CCOCC4)ccc23)c(Cl)cc1Cl` has an IC50 of 0.95 µM.
